PubChem BioAssay (NCI)
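1) Cells in 96-well plates. 2) Compound, 48 h, 5 concentrations. 3) Linear interpolation between surrounding doses. 4) Unreached endpoint = highest concentration. GI50 = concentration required for 50% inhibition of growth. The concentration for full growth arrest is given as TGI.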

How the values were obtained:
Test in all cases: NCI-60 cell line screen, 48 h
CAKI-1 renal = system: CAKI-1 renal
MOLT-4 leukemia = system: MOLT-4 leukemia
NCI/ADR-RES ovarian = system: NCI/ADR-RES ovarian
SW-620 colon = system: SW-620 colon
UACC-257 melanoma = system: UACC-257 melanoma
UACC-62 melanoma = system: UACC-62 melanoma
U251 CNS = system: U251 CNS
KM12 colon = system: KM12 colon

Compound	TGI (CAKI-1 renal) [µM]	TGI (MOLT-4 leukemia) [µM]	TGI (NCI/ADR-RES ovarian) [µM]	TGI (SW-620 colon) [µM]	TGI (UACC-257 melanoma) [µM]	TGI (UACC-62 melanoma) [µM]	TGI (U251 CNS) [µM]	TGI (KM12 colon) [µM]	GI50 (CAKI-1 renal) [µM]	GI50 (MOLT-4 leukemia) [µM]	GI50 (UACC-257 melanoma) [µM]	GI50 (UACC-62 melanoma) [µM]	GI50 (KM12 colon) [µM]
CCOC(=O)/C=C(/C(=O)OCC)n1c(=O)c(C)cn(C2CC(N=[N+]=[N-])C(CO)O2)c1=O (stereo not given)	83.9	25.6	> 100	34.1	86.1	> 100	37.4	> 100	–	–	–	–	–
O=C(NN=C1CCCCC1)Nc1ccccc1Cl	> 100	> 100	63.9	> 100	> 100	> 100	> 100	> 100	–	–	–	–	–
C=C1c2nc3ccccc3n2C=C(c2ccc(Cl)cc2)N1c1ccccc1	39.4	> 100	29.8	> 100	63	66.2	44.8	24.7	–	–	–	–	–
O=C1c2ccccc2C2(c3ccc(Cl)cc3)NCc3ccccc3CN12 (stereo not given)	> 100	91.7	29.9	> 100	> 100	33.5	> 100	44.2	–	–	–	–	–
COC(=O)C[C@H](COCc1ccccc1)NC(=O)C[C@H](COCc1ccccc1)NC(=O)C[C@H](COCc1ccccc1)NC(=O)OC(C)(C)C	> 100	> 100	> 100	> 100	–	> 100	> 100	> 100	–	–	–	–	–
COC(=O)C1(NC(=O)C(N)CC(=O)O)C(C)C1C (stereo not given)	> 100	> 100	> 100	> 100	> 100	> 100	> 100	> 100	–	–	–	–	–
O=C(Nc1ccc2ccccc2c1)Nn1cnnc1	> 100	> 100	–	> 100	> 100	> 100	> 100	> 100	–	–	–	–	–
COC(=O)C1=C(OC(=O)/C(=C/c2ccc(Cl)cc2)c2ccccc2)C(C(=O)OC)[C@@]2(O)[C@@H](C(=O)OC)[C@H](C)C[C@@H]1[C@@H]2C(=O)OC (stereo not given in full)	> 100	> 100	> 100	> 100	> 100	> 100	> 100	> 100	–	–	–	–	–
CC(C)OC(=O)c1ccc(CCC2=CC(=O)C(Br)=CC2=O)cc1	38.4	14	37.4	29.2	26.9	31.3	29.8	26.5	–	–	–	–	–
O=C1c2ccccc2C(=O)N1C(=S)c1ccccc1	> 100	> 100	> 100	> 100	> 100	> 100	> 100	> 100	–	–	–	–	–
O=C(c1ccc(Cl)cc1)N1N=C(c2ccc(Cl)cc2)CC1(O)c1cc(F)c(Cl)cc1Cl (stereo not given)	39.6	> 100	> 100	> 100	> 100	63.3	37.3	21.7	–	–	–	–	–
O=C1C[C@H](c2ccccc2)C2(C(=O)c3ccccc3C2=O)[C@@H](c2ccccc2)C1	> 100	> 100	> 100	–	–	26.7	> 100	–	–	–	–	–	–
CCCCCC(/C=C/[C@@H]1CC(=O)C[C@H]1O[Si](C)(C)C(C)(C)C)OCOCCOC (stereo not given in full)	7.87	4.97	10.5	> 28.1	11	7.64	8.08	8.96	–	–	–	–	–
N#CSCC1COc2ccccc2O1 (stereo not given)	> 10	> 10	> 10	> 10	–	> 10	> 10	> 10	–	–	–	–	–
Sc1nnc(-c2ccccc2Nc2ccccc2-c2nnc(S)n2-c2ccccc2)n1-c1ccccc1	> 100	78.9	> 100	81.9	> 100	> 100	> 100	> 100	–	–	–	–	–
Cc1nc2ccccc2c(=O)n1NC(=O)Cc1ccccc1	–	> 100	–	> 100	> 100	> 100	> 100	> 100	–	–	–	–	–
O=C1C=CC2(O[C@@H](Cc3ccccc3)[C@H](Cc3ccccc3)O2)C(SC(=O)c2ccccc2)C1 (stereo not given in full)	3.71	0.651	4.06	0.858	2.55	5.04	2.56	6.82	–	–	–	–	–
CC(/C=N/NC1=NCCCCN1)=N\NC1=NCCCCN1	> 100	> 100	> 100	> 100	> 100	> 100	> 100	> 100	–	–	–	–	–
CC(NC(=O)C(C)C(=O)NCc1ccc(C(F)(F)F)cc1)C(N)=O (stereo not given)	> 100	> 100	> 100	> 100	> 100	> 100	> 100	> 100	–	–	–	–	–
Cc1cccc2c(N)c3cccc(C(=O)NCC[N+](C)(C)Cc4sc(N5CCOCC5)nc4[N+](=O)[O-])c3nc12	4.64	> 100	23.3	> 100	43	18.6	> 100	17.6	–	–	–	–	–
Cc1nnc(N)nc1/C=C\c1cccs1	> 100	> 100	76.6	> 100	> 100	49.4	> 100	31.5	–	–	–	–	–
C/C=C/C=C/C1=NN(c2cccc(S(=O)(=O)O)c2)C2(C1)SCC(=O)N2c1nc2ccccc2s1 (stereo not given)	> 100	> 100	> 100	> 100	> 100	> 100	> 100	> 100	–	–	–	–	–
Cc1ccccc1NC(=S)N/N=C(/c1ccccc1)c1ccccn1	10.5	3.98	15.2	15.4	0.357	17.1	12.1	14	–	–	–	–	–
CCN(CC)C(=S)SNCCc1ccc(S(N)(=O)=O)cc1	29	–	41.6	36.7	32.9	> 94.1	31.8	37.6	–	–	–	–	–
C1OCN2c3nonc3N3COCN4c5nonc5N1C2C43 (stereo not given)	> 100	> 100	> 100	> 100	> 100	> 100	> 100	> 100	–	–	–	–	–

Compound	TGI (CAKI-1 renal) [µM]	TGI (MOLT-4 leukemia) [µM]	TGI (NCI/ADR-RES ovarian) [µM]	TGI (SW-620 colon) [µM]	TGI (UACC-257 melanoma) [µM]	TGI (UACC-62 melanoma) [µM]	TGI (U251 CNS) [µM]	TGI (KM12 colon) [µM]	GI50 (CAKI-1 renal) [µM]	GI50 (MOLT-4 leukemia) [µM]	GI50 (UACC-257 melanoma) [µM]	GI50 (UACC-62 melanoma) [µM]	GI50 (KM12 colon) [µM]
CC1CCC2c3c([nH]c4ccccc34)C3C(=O)N(C4CCCCC4)C(=O)C3C2C1 (stereo not given)	30.8	–	> 100	> 100	> 100	28.8	25.3	–	–	–	–	–	–
CC1(C)Oc2ccc(Cl)cc2C12CC2	31.2	44.1	44	30.9	30.1	> 100	29.4	53.1	–	–	–	–	–
CC[C@@]1(O)C(=O)OCc2c1cc1n(c2=O)Cc2c-1nc1ccccc1c2/C=N\NC(=O)C(N)CS (stereo not given in full)	> 91.3	2.07	> 45.2	> 100	> 100	0.761	> 34.5	> 100	–	–	–	–	–
NCCCCNCCCN	3.1	> 100	> 100	> 100	> 100	> 100	> 100	> 100	–	–	–	–	–
Cc1ccc([N+](=O)[O-])cc1S(=O)(=O)Nc1ccc(C2=NN(c3ccc([N+](=O)[O-])cc3[N+](=O)[O-])C(c3ccccc3O)C2)cc1 (stereo not given)	> 100	> 100	> 100	> 100	82.7	–	> 100	> 100	–	–	–	–	–
Cc1ccc(O)c(Cc2nc3ccccc3nc2-c2cccc(Br)c2)c1	> 100	84.7	> 100	> 100	> 100	> 100	> 100	> 100	–	–	–	–	–
O=C(/C=C/c1cccs1)c1ccsc1	> 100	40.6	> 100	75.2	52.3	38.5	> 10	> 10	–	–	–	–	–
NCCCn1c2c(c3ccc([N+](=O)[O-])cc3c1=O)C(=O)c1cc3c(cc1-2)OCO3	0.491	> 100	–	–	3	1.65	–	4.42	< 0.01	< 0.01	0.372	0.0288	0.321
O=[N+]([O-])c1cccc2nc3ccccc3c(NCCC[N+]3([O-])CCCCC3)c12	> 100	> 100	> 100	> 34.8	0.55	0.805	1.24	2.07	–	–	–	–	–
CC1=CC(=O)c2cccc(NC3=NCCO3)c21	> 100	> 100	82.5	> 100	–	> 100	> 100	90.5	–	–	–	–	–
CC(=O)OCC1OC(OCC2OC(N3C(=S)N[C@H]([C@@H](O)[C@H](O)[C@H](O)CO)[C@H]3O)C(OC(C)=O)C(OC(C)=O)C2OC(C)=O)C(OC(C)=O)C(OC(C)=O)C1OC(C)=O (stereo not given in full)	> 100	> 100	> 100	> 100	–	> 100	> 100	> 100	–	–	–	–	–
CC(=O)NC1C(OCc2ccccc2)OC(CO)C(O)C1OCC(=O)NC(C)C(=O)NC(CCC(=O)NCCCCCC(=O)Nc1ccc2c(c1)CN1C(=O)c3ccccc3C1=N2)C(N)=O (stereo not given)	> 100	> 100	> 100	> 100	> 100	> 100	> 100	> 100	–	–	–	–	–
COc1ccc(OC)c(CNc2ccc(O)c(C(=O)NCCc3ccc(F)cc3)c2)c1	87.9	21.5	> 100	> 100	41	25.7	24.9	25.9	–	–	–	–	–
O=c1c2cc(-c3ccccc3)cnc2sn1-c1ccc([N+](=O)[O-])cc1	> 100	> 100	> 100	> 100	> 100	> 100	95.1	> 100	–	–	–	–	–
Oc1[nH]c2ccccc2c1N=NC(=S)N1CCCCCC1	4.62	3.1	1.42	9.23	5.88	2.5	8.16	2.22	–	–	–	–	–
O=C(NCCO)c1c(O)c2ccccc2[nH]c1=O	> 100	> 100	> 100	> 100	> 100	–	> 100	> 100	–	–	–	–	–
COC(=O)c1ccc(C)cc1C1CN=NC12Cc1cc(C)c(C)cc1C2=O (stereo not given)	> 100	93	> 100	> 100	> 100	–	> 100	> 100	–	–	–	–	–
CC(=O)O[C@H]1CC[C@@]2(C)C(=CC[C@@H]3[C@@H]2CC[C@]2(C)c4nc(N)c(C#N)cc4C[C@@H]32)C1	> 100	> 100	–	> 100	> 100	> 100	> 100	> 100	–	–	–	–	–
c1ccc(C(=NNc2nc3ccccc3[nH]2)c2ccccn2)nc1	2.07	0.062	0.583	> 100	1.92	–	> 69	> 80.3	–	–	–	–	–
CN(C)CCCNC(=O)c1cc(NC(=O)c2cc(NC(=O)c3cc(NC(=O)CCCn4ccc(CO)c4CO)cn3C)cn2C)cn1C	> 100	> 100	> 100	> 100	–	37.9	> 100	> 100	–	–	–	–	–
CCC(=N\NC(N)=S)/C(C)=N/O	> 100	–	> 100	> 100	> 100	> 100	> 100	> 100	–	–	–	–	–
c1ccc(C(CCN2CCCC2)c2ccccn2)cc1 (stereo not given)	> 100	–	> 100	> 100	> 100	> 100	> 100	> 100	–	–	–	–	–
CC(C)(C)OC(=O)NC(CCCCNC(=O)OCc1ccccc1)C(=O)NC(CCCCNC(=O)OCc1ccccc1)C(=O)ON1C(=O)CCC1=O (stereo not given)	–	> 100	–	> 100	> 100	> 100	> 100	> 100	–	–	–	–	–
Cc1cc(NC2=NCCO2)c2c(c1C)CCCC2	–	95.3	73.1	> 100	39.1	41.1	63.1	33.5	–	–	–	–	–
